From ChEMBL document CHEMBL1201862, “PubChem BioAssay data set” (2004)
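Exposure lasted 48 hours, with cells grown in 96-well plates and compounds tested at five concentrations. GI50: concentration for 50% inhibition of growth.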 The source made the active and inactive calls. Rule as the data show it: active = GI50 up to about 1.1 µM and inactive = higher.

Assays:
Assay in all cases: NCI anticancer screen, dose series, 48 h
[1] = tested on: MOLT-4
[2] = tested on: Malme-3M
[3] = tested on: OVCAR-3
[4] = tested on: HT-29
[5] = tested on: U-251
[6] = tested on: SK-MEL-28
[7] = tested on: HOP-62
[8] = tested on: A549
[9] = tested on: TK-10
[10] = tested on: CCRF-CEM
[11] = tested on: NCI-H23
[12] = tested on: OVCAR-4
[13] = tested on: SNB-19
[14] = tested on: SF-295
[15] = tested on: SR
[16] = tested on: NCI-H226

Measured: GI50

C[N+](C)(C)CC(=O)N/N=C(\C(=O)Nc1ccc(Cl)cc1)C1C(=O)N(c2ccccc2)N=C1N (stereo unspecified)
inactive: [1] > 100 µM | [2] > 100 µM | [3] > 100 µM | [4] > 100 µM | [5] > 100 µM | [6] > 100 µM | [7] > 100 µM | [8] > 100 µM | [9] > 100 µM | [10] > 100 µM | [11] > 100 µM | [12] > 100 µM | [13] > 100 µM

COc1cc(Cl)cc(N(O)C(C)=O)c1OCc1ccccc1
inactive: [1] 50.4 µM | [2] > 100 µM | [3] 74.6 µM | [4] 64.6 µM | [5] 80.4 µM | [6] > 100 µM | [7] 65.6 µM | [14] 66.2 µM | [8] 68.5 µM | [9] 79.4 µM | [10] 38.1 µM | [15] 44.3 µM | [16] 65.8 µM | [11] > 100 µM | [12] > 100 µM | [13] 80.9 µM

CCCCCCCC(=O)OCC1OC(n2cc(F)c(=O)[nH]c2=O)C(NC(=O)OCc2ccccc2)C(O)C1O (stereo unspecified)
inactive: [1] 27.9 µM | [2] > 100 µM | [3] > 100 µM | [4] > 100 µM | [5] 80.2 µM | [6] > 100 µM | [7] > 100 µM | [14] > 100 µM | [8] > 100 µM | [9] > 100 µM | [10] 26.5 µM | [15] 31.8 µM | [11] > 100 µM | [12] > 100 µM | [13] 53.3 µM

CN(C)/C=C/C(=CC=[N+](C)C)/C=C/N(C)C.[O-][Cl+3]([O-])([O-])[O-]
inactive: [1] 90.4 µM | [2] > 100 µM | [3] > 100 µM | [4] > 100 µM | [5] > 100 µM | [6] > 100 µM | [7] > 100 µM | [14] > 100 µM | [8] > 100 µM | [9] > 100 µM | [10] 60.3 µM | [15] > 100 µM | [16] > 100 µM | [11] > 100 µM | [12] > 100 µM | [13] > 100 µM

CC(C)NCCCC(C)Nc1ccnc2ccc3nn(C)nc3c12 (stereo unspecified)
inactive: [1] 35 µM | [2] 63 µM | [4] 37.8 µM | [5] > 100 µM | [7] 52.7 µM | [14] 34.6 µM | [8] 62.1 µM | [9] > 100 µM | [10] 41.9 µM | [15] 40.1 µM | [16] 31.8 µM | [11] > 100 µM | [13] > 100 µM

COC(=O)C(C(=O)Cc1ccccc1[N+](=O)[O-])C(=O)OC
inactive: [1] > 100 µM | [2] > 100 µM | [3] > 100 µM | [4] > 100 µM | [6] > 100 µM | [7] > 100 µM | [14] 42.2 µM | [8] > 100 µM | [9] > 100 µM | [10] 74.6 µM | [15] 23.9 µM | [16] > 100 µM | [11] > 100 µM | [12] > 100 µM | [13] > 100 µM

c1cncc(C2c3[nH]c4ccccc4c3CCN2CCCN2CCCCC2)c1 (stereo unspecified)
inactive: [1] > 100 µM | [2] 29.7 µM | [3] 51.1 µM | [4] > 100 µM | [5] > 100 µM | [6] 20.3 µM | [7] > 100 µM | [14] > 100 µM | [8] > 100 µM | [9] > 100 µM | [15] > 100 µM | [16] > 100 µM | [11] > 100 µM | [12] > 100 µM | [13] > 100 µM

CN(C)CC1CCC(CN(C)C)C1=NO (stereo unspecified)
inactive: [1] > 100 µM | [2] > 100 µM | [3] > 100 µM | [4] > 100 µM | [6] > 100 µM | [7] > 100 µM | [14] > 10 µM | [8] > 100 µM | [9] > 100 µM | [10] > 100 µM | [15] 29 µM | [12] > 100 µM

COC(=O)[C@]12CCC(C)[C@H](C)[C@H]1C1=CCC3[C@@]4(C)CC[C@H](OC(C)=O)C(C)(C)C4CC[C@@]3(C)C1(C)C(O)C2 (stereo partly specified)
inactive: [1] 86.5 µM | [2] > 100 µM | [3] > 100 µM | [4] > 100 µM | [5] > 100 µM | [6] > 100 µM | [7] > 100 µM | [14] > 100 µM | [8] > 100 µM | [9] > 100 µM | [10] 89.3 µM | [15] > 100 µM | [16] 27.1 µM | [11] > 100 µM | [12] > 100 µM | [13] > 100 µM

CCOC(=O)C1(C(=O)OCC)C(C(C)(C)C)=C(C)c2ccccc21
inactive: [1] 29.9 µM | [2] 11.4 µM | [3] 11.9 µM | [4] 10.9 µM | [5] 15.3 µM | [6] 12.5 µM | [7] 20.3 µM | [14] 11.7 µM | [8] 18.1 µM | [9] 30.1 µM | [10] 13.1 µM | [15] 39.1 µM | [16] 14.5 µM | [11] 10.2 µM | [12] 14.9 µM | [13] 19.9 µM

Cc1nc(N)sc1C(=O)/C=C/c1ccc([N+](=O)[O-])cc1
inactive: [1] > 100 µM | [2] > 100 µM | [3] > 100 µM | [4] > 100 µM | [5] > 100 µM | [6] > 100 µM | [7] > 100 µM | [14] > 100 µM | [8] > 100 µM | [9] > 100 µM | [10] > 100 µM | [11] > 100 µM | [13] > 100 µM

O=c1[nH]cnc2c(COCCO)c[nH]c12
inactive: [1] > 100 µM | [2] > 100 µM | [3] > 100 µM | [4] > 100 µM | [5] > 100 µM | [6] > 100 µM | [7] > 100 µM | [14] > 100 µM | [9] > 100 µM | [10] > 100 µM | [15] > 100 µM | [16] > 100 µM | [11] > 100 µM | [12] > 100 µM | [13] > 100 µM

COC(=O)C(=O)C(C(=O)C(=O)Nc1cc(C)ccc1C)c1nc2ccc(C(=O)c3ccccc3)cc2nc1O (stereo unspecified)
inactive: [1] 48.9 µM | [2] > 100 µM | [5] > 100 µM | [6] > 10 µM | [14] 83.6 µM | [8] > 100 µM | [9] > 100 µM | [10] 42.2 µM | [15] 68.5 µM | [16] 62.1 µM | [11] > 100 µM | [12] > 100 µM | [13] > 100 µM

O=C(/C=C/c1ccc(Cl)cc1)c1ccc(Cl)c(Cl)c1
inactive: [1] 20.5 µM | [2] 25.1 µM | [3] 21.7 µM | [4] 48 µM | [5] 11.2 µM | [6] 17.3 µM | [7] 22 µM | [14] 35.2 µM | [8] 23.7 µM | [9] > 10 µM | [10] 16.2 µM | [16] 14 µM | [11] 9.4 µM | [12] 26.4 µM | [13] 23.7 µM

O=C(Nc1cc(Cl)cc(Cl)c1)/C(Cc1nc2ccccc2nc1O)=N/NC(=O)c1ccncc1
inactive: [1] > 100 µM | [2] > 100 µM | [3] > 100 µM | [5] > 100 µM | [7] > 100 µM | [14] > 100 µM | [8] > 100 µM | [9] > 100 µM | [10] > 100 µM | [12] > 100 µM | [13] > 100 µM

CCOC(=O)c1c2ccc(/C=C/C(=O)OC)ccc-2c(C(=O)OCC)c1N
inactive: [1] > 100 µM | [2] > 100 µM | [3] > 100 µM | [4] > 100 µM | [6] 1.62 µM | [14] > 100 µM | [8] > 100 µM | [9] > 100 µM | [10] > 100 µM | [16] > 100 µM | [11] > 100 µM | [12] > 100 µM | [13] > 100 µM

N#CC(C(=O)/C(=N/NC(=O)c1ccccc1O)C(C#N)c1ccccc1)c1ccccc1 (stereo unspecified)
inactive: [2] > 100 µM | [3] > 100 µM | [4] > 100 µM | [5] > 100 µM | [6] > 100 µM | [7] > 100 µM | [14] > 100 µM | [8] > 100 µM | [9] > 100 µM | [16] > 100 µM | [11] > 100 µM | [12] > 100 µM

CC(C)N1CCOC(c2ccc(O)c(O)c2)C1 (stereo unspecified)
inactive: [1] > 100 µM | [2] > 100 µM | [3] > 100 µM | [4] > 100 µM | [6] > 100 µM | [7] > 100 µM | [14] > 100 µM | [8] > 100 µM | [9] > 100 µM | [10] > 100 µM | [11] > 100 µM | [12] > 100 µM | [13] > 100 µM

CN(C(=O)C12C3C4C1C1C2C3C41I)C(C)(C)C (stereo unspecified)
inactive: [2] > 95.9 µM | [3] 70.1 µM | [4] > 95.1 µM | [5] > 91.2 µM | [6] > 100 µM | [7] > 100 µM | [14] > 100 µM | [8] > 100 µM | [9] > 57.4 µM | [15] > 29.4 µM | [16] > 51.5 µM | [11] > 96.6 µM | [12] > 100 µM | [13] > 100 µM
